Columns and labels:
[1] = Oral and intracolonic delivery of heparin in rats (APTT); format: in vivo, Sprague-Dawley rats; settings: Heparin Dose 1 mg/kg, maximum of group means, n=5
Description: Oral gavage (PO) and intracolonic (IC) dosing solutions containing a delivery agent compound and heparin sodium USP in 25% aqueous propylene glycol were prepared. Either the sodium salt of the delivery agent compound was used or the free acid was converted to the sodium salt with one equivalent of sodium hydroxide. Typically, the delivery agent compound and heparin (about 166-182 IU/mg) were mixed by vortex as dry powders. This dry mixture was dissolved in 25% v/v aqueous propylene glycol, vortexed and placed in a sonicator (about 37° C.). The pH was adjusted to about 7 (6.5 to 8.5) with aqueous NaOH (2N). The dosing solution was sonicated to produce a clear solution. The final volume was adjusted to 3.0 mL. The final delivery agent compound dose, heparin dose and volume dose amounts are listed below in Table 2.
The typical dosing and sampling protocols were as follows. Male Sprague-Dawley rats weighing between 275-350 g were fasted for 24 hours and were anesthetized with ketamine hydrochloride (88 mg/kg) intramuscularly immediately prior to dosing. A dosing group of five rats was administered one of the dosing solutions. For oral gavage (PO) dosing, an 11 cm Rusch 8 French catheter was adapted to a 1 mL syringe with a pipette tip. The syringe was filled with dosing solution by drawing the solution through the catheter, which was then wiped dry. The catheter was placed down the esophagus leaving 1 cm of tubing past the rat's incisors. Solution was administered by pressing the syringe plunger. For intracolonic (IC) dosing, a 7.5 cm 8 fr Rusch catheter was adapted to a 1 ml syringe with a pipette tip. The dosing catheter was inserted into the colon through the anus until the tube was no longer visible. The dosing solution was expressed slowly into the colon.
Citrated blood samples were collected by cardiac puncture following the administration of ketamine (88 mg/kg), typically at time—0.25, 0.5, 1.0 and 1.5 hours. Heparin activity was determined by utilizing the activated partial thromboplastin time (APTT) according to the method of Henry, J. B., Clinical Diagnosis and Management by Laboratory Methods, Philadelphia, Pa., W. B. Saunders (1979). Previous studied indicated baseline values of about 20 sec. Results from the five rats in each group were averaged for each time point. The maximum is reported below in Table 2.

[2] = Oral, as printed: Volume Dose 300 ml/kg, Compound Dose 100 mg/kg

Row | SMILES | melting point [°C] | Mean Peak APTT (sec) ± SD ([1]; IC, as printed: Volume Dose 200 ml/kg, Compound Dose 25 mg/kg) [s] | Mean Peak APTT (sec) ± SD [1, 2] [s] | Mean Peak APTT (sec) ± SD ([1]; IC, as printed: Volume Dose 50 ml/kg, Compound Dose 25 mg/kg) [s]
1 | N#Cc1ccccc1OCCCCCC(=O)O (hydrate or solvate) [Compound 4, 6-(2-cyanophenoxy)hexanoic acid] | 77 to 80 | – | – | –
2 | N#Cc1ccccc1OCCCC(=O)O [Compound 2, 4-(2-cyanophenoxy)butanoic acid] | 127 to 128 | – | – | –
3 | N#Cc1ccccc1OCCCCC(=O)O [Compound 3, 5-(2-cyanophenoxy) pentanoic acid] | 87 to 89 | 16.23 ± 1.23 | 203.59 ± 72.97 | –
4 | N#Cc1ccccc1OCCCCCCCC(=O)O [Compound 5, 8-(2-cyanophenoxy) octanoic acid] | 83 to 85 | – | 176.25 ± 175.01 | 80.22 ± 45.70
5 | N#Cc1ccccc1OCCCCCCCCCC(=O)O [Compound 6, 10-(2-cyanophenoxy)decanoic acid] | 82 to 84 | – | – | –

Continued, in another order:

Row | melting point [°C] | SMILES | Mean Peak APTT (sec) ± SD ([1]; IC, as printed: Volume Dose 200 ml/kg, Compound Dose 25 mg/kg) [s] | Mean Peak APTT (sec) ± SD [1, 2] [s] | Mean Peak APTT (sec) ± SD ([1]; IC, as printed: Volume Dose 50 ml/kg, Compound Dose 25 mg/kg) [s]
6 | 137 to 140 | N#Cc1ccc(OCCCCCCCC(=O)O)cc1 [Compound 8, 8-(4-cyanophenoxy)octanoic acid] | – | – | –
7 | 199 to 203 | N#Cc1ccccc1OCc1ccc(C(=O)O)cc1 [Compound 9, 4-(2-cyanophenoxymethyl)benzoic acid] | – | – | –
8 | 87 to 90 | N#Cc1cc(Cl)ccc1OCCCCC(=O)O [Compound 7, 5-(4-chloro-2-cyanophenoxy)pentanoic acid] | – | – | –

Reference: US7390834B2, “Cyanophenoxy carboxylic acid compounds and compositions for delivering active agents” (Emisphere Technologies, Inc., priority 2000, dated 2008)
